Read-outs that look alike come from different tables or passages of the source.
Key:
all 50 cell lines = test: CellTiter-Glo Viability Assay, average across all cell lines; format: cell-based; conditions: Homo sapiens, read-out: average EC50 for inhibition of cancer cell proliferation
Procedure, shortened: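 Cells were plated at 300-3,000 per well in their own media, then treated with compound in duplicate, with DMSO wells as controls. After four days at 37° C and 5% CO2, CellTiter-Glo was added, and luminescence was read. EC50s were fitted.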

[1] = tested on: liver cancer (3 cell lines); test: CellTiter-Glo Viability Assay, liver cancer; format: cell-based; conditions: Homo sapiens
CLK3 = CLK3 (Homo sapiens, UniProt P49761); test: CLK3 kinase activity assay (Z-lyte, Ser/Thr 18 peptide)
CLK3, sequence (P49761 whole entry): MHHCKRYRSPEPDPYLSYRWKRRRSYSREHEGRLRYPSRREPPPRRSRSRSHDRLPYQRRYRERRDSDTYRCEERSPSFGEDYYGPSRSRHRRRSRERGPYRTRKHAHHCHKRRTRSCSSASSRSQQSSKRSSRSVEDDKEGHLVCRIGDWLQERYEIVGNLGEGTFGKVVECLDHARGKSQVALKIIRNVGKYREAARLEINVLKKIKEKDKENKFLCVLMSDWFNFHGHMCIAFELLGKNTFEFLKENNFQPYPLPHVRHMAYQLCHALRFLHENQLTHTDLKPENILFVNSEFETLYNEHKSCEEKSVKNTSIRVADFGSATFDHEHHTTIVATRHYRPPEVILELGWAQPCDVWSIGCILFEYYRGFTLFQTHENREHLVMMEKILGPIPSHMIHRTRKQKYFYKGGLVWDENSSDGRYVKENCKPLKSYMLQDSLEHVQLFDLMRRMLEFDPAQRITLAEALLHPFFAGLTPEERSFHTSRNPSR

[2] = tested on: ovarian cancer (4 cell lines); test: CellTiter-Glo Viability Assay, ovarian cancer; format: cell-based; conditions: Homo sapiens
[3] = tested on: prostate cancer (5 cell lines); test: CellTiter-Glo Viability Assay, prostate cancer; format: cell-based; conditions: Homo sapiens
[4] = tested on: haematopoietic & lymphoid tumors (13 cell lines); test: CellTiter-Glo Viability Assay, haematopoietic & lymphoid tumors; format: cell-based; conditions: Homo sapiens
BT-549 = test: CellTiter-Glo Viability Assay, breast cancer; format: cell-based; conditions: Homo sapiens, BT-549, 96 h
T47D = test: CellTiter-Glo Viability Assay, breast cancer; format: cell-based; conditions: Homo sapiens, 96 h
DU4475 = test: CellTiter-Glo Viability Assay, breast cancer; format: cell-based; conditions: Homo sapiens, DU-4475, 96 h
ZR-75-1 = test: CellTiter-Glo Viability Assay, breast cancer; format: cell-based; conditions: Homo sapiens, ZR-75-1, 96 h
MDA-MB-231-Luc = test: CellTiter-Glo Viability Assay, breast cancer; format: cell-based; conditions: Homo sapiens, 96 h
MCF7 = test: CellTiter-Glo Viability Assay, breast cancer; format: cell-based; conditions: Homo sapiens, MCF7, 96 h
HCC1599 = test: CellTiter-Glo Viability Assay, breast cancer; format: cell-based; conditions: Homo sapiens, HCC1599, 96 h
CAMA1 = test: CellTiter-Glo Viability Assay, breast cancer; format: cell-based; conditions: Homo sapiens, CAMA-1, 96 h
[5] = tested on: pancreatic cancer (8 cell lines); test: CellTiter-Glo Viability Assay, pancreatic cancer; format: cell-based; conditions: Homo sapiens
[6] = tested on: lung cancer (4 cell lines); test: CellTiter-Glo Viability Assay, lung cancer; format: cell-based; conditions: Homo sapiens
[7] = tested on: colorectal cancer (6 cell lines); test: CellTiter-Glo Viability Assay, colorectal cancer; format: cell-based; conditions: Homo sapiens

**Q.** Which results are given for `CN1CCN(C(=O)C(C)(C)c2ccc(C(=O)Nc3cn4cc(-c5ccncc5)ccc4n3)cc2)CC1` [Compound 27]?
**A.** EC50 (all 50 cell lines): 2840 nM; EC50 ([1]; HepG2, read-out: Liver cancer, EC50 HEPG2): 3340 nM; EC50 ([1]; PLC-PRF-5, read-out: Liver cancer, EC50 PLC/PRF/5): 4020 nM; EC50 ([1]; SNU-398, read-out: Liver cancer, EC50 SNU398): 917 nM; EC50 (CLK3): 35 nM; EC50 ([2]; OV-90, read-out: Ovarian cancer, EC50 (μM) OV-90): 3.87 µM; EC50 ([2]; OVCAR-3, read-out: Ovarian cancer, EC50 (μM) OVCAR-3): 1.31 µM; EC50 ([2]; PA-1, read-out: Ovarian cancer, EC50 (μM) PA1): 1.58 µM; EC50 ([2]; TOV112D, read-out: Ovarian cancer, EC50 (μM) TOV-112D): 2.32 µM; EC50 ([3]; 22Rv1, read-out: Prostate cancer EC50 22Rv1): 2910 nM; EC50 ([3]; DU-145, read-out: Prostate cancer EC50 Du-145): 3380 nM; EC50 ([3]; LNCaP-Clone-FGC, read-out: Prostate cancer EC50 LNCap clone FGC): 4180 nM; EC50 ([3]; PC-3, read-out: Prostate cancer EC50 PC3): 2580 nM; EC50 ([3]; VCaP, read-out: Prostate cancer EC50 VCaP (Sigma)): 7470 nM; EC50 ([4]; DND41, read-out: Haematopoietic & Lymphoid tumors, EC50 (μM) DND-41): 1.78 µM; EC50 ([4]; HL-60, read-out: Haematopoietic & Lymphoid tumors, EC50 (μM) HL-60): 4.98 µM; EC50 ([4]; JM1, read-out: Haematopoietic & Lymphoid tumors, EC50 (μM) JM1): 0.982 µM; EC50 ([4]; JeKo-1, read-out: Haematopoietic & Lymphoid tumors, EC50 (μM) JeKo-1): 1.22 µM; EC50 ([4]; Jurkat, read-out: Haematopoietic & Lymphoid tumors, EC50 (μM) JURKAT, Clone E6-1): 3.85 µM; EC50 ([4]; Kasumi 1, read-out: Haematopoietic & Lymphoid tumors, EC50 (μM) KASUMI-1): 2.1 µM; EC50 ([4]; MOLT-4, read-out: Haematopoietic & Lymphoid tumors, EC50 (μM) MOLT-4): 2.39 µM; EC50 ([4]; MV4-11, read-out: Haematopoietic & Lymphoid tumors, EC50 (μM) MV-4-11): 0.275 µM; EC50 ([4]; Rec1, read-out: Haematopoietic & Lymphoid tumors, EC50 (μM) REC-1): 1 µM; EC50 ([4]; SU-DHL-4, read-out: Haematopoietic & Lymphoid tumors, EC50 (μM) SUDHL4): 2.54 µM; EC50 ([4]; TF-1, read-out: Haematopoietic & Lymphoid tumors, EC50 (μM) TF-1): 3.41 µM; EC50 ([4]; Toledo, read-out: Haematopoietic & Lymphoid tumors, EC50 (μM) TOLEDO): 1.1 µM; EC50 ([4]; read-out: Haematopoietic & Lymphoid tumors, EC50 (μM) Loucy): 1.49 µM; EC50 (BT-549): 3610 nM; EC50 (T47D): 4100 nM; EC50 (DU4475): 1990 nM; EC50 (ZR-75-1): 3910 nM; EC50 (MDA-MB-231-Luc): 3650 nM; EC50 (MCF7): 3970 nM; EC50 (HCC1599): 8040 nM; EC50 (CAMA1): 4250 nM; EC50 ([5]; BXPC-3, read-out: Pancreatic cancer, EC50 BxPC3): 4610 nM; EC50 ([5]; CAPAN-1, read-out: Pancreatic cancer, EC50 Capan1): 3470 nM; EC50 ([5]; Capan-2, read-out: Pancreatic cancer, EC50 Capan2): 3770 nM; EC50 ([5]; MIA PaCa-2, read-out: Pancreatic cancer, EC50 MIA PaCa-2): 1440 nM; EC50 ([5]; PANC-1, read-out: Pancreatic cancer, EC50 PANC-1): 4640 nM; EC50 ([5]; Panc 05.04, read-out: Pancreatic cancer, EC50 PANC 05.04): 3640 nM; EC50 ([5]; read-out: Pancreatic cancer, EC50 UPAFII): 1870 nM; EC50 ([6]; A-427, read-out: Lung cancer, EC50 (μM) A427): 3.08 µM; EC50 ([6]; HCC78, read-out: Lung cancer, EC50 (μM) HCC-78): 3.72 µM; EC50 ([6]; NCI-H460, read-out: Lung cancer, EC50 (μM) NCI-H460): 3.54 µM; EC50 ([6]; NCI-H522, read-out: Lung cancer, EC50 (μM) NCI-H522): 1.99 µM; EC50 ([7]; DLD-1, read-out: Colorectal cancer, EC50 (μM) DLD-1): 1.65 µM; EC50 ([7]; HCT-116, read-out: Colorectal cancer, EC50 (μM) HCT116): 1.08 µM; EC50 ([7]; HT-29, read-out: Colorectal cancer, EC50 (μM) HT29): 2.38 µM; EC50 ([7]; SW48, read-out: Colorectal cancer, EC50 (μM) SW48): 0.675 µM; EC50 ([7]; SW480, read-out: Colorectal cancer, EC50 (μM) SW480): 1.08 µM; EC50 ([7]; SW-620, read-out: Colorectal cancer, EC50 (μM) SW620): 0.97 µM
